Measurements from patent US8192962B2, “Processes for detecting toxic substances” (Daikin Industries, Ltd., priority 2001, dated 2012).

Test system: Stress protein genes
Assay: DNA chip mRNA expression in yeast, stress protein genes (Table 6)
Assay type: cell-based, Saccharomyces cerevisiae S288C
How it was run: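 S. cerevisiae S288C grown at 25° C in YPD were exposed in log phase for two hours to one toxic chemical at a growth-inhibiting, non-lethal concentration; untreated cells served as control. Poly(A) mRNA was reverse-transcribed with Cy3/Cy5-dUTP and hybridized to a whole-genome yeast DNA chip at 65° C for over 12 hours; values are fluorescence ratios versus untreated.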

manganese ethylenebis(dithiocarbamate) [(8)]
The level of expressed mRNA in the presence of chemical substance/The level of expressed mRNA in the absence of chemical substance (yeast gene YAL005C): 0.9
The level of expressed mRNA in the presence of chemical substance/The level of expressed mRNA in the absence of chemical substance (yeast gene YAL015C): 1.1
The level of expressed mRNA in the presence of chemical substance/The level of expressed mRNA in the absence of chemical substance (yeast gene YBL075C): 0.8
The level of expressed mRNA in the presence of chemical substance/The level of expressed mRNA in the absence of chemical substance (yeast gene YBL093C): 1.6
The level of expressed mRNA in the presence of chemical substance/The level of expressed mRNA in the absence of chemical substance (yeast gene YBR044C): 1.1
The level of expressed mRNA in the presence of chemical substance/The level of expressed mRNA in the absence of chemical substance (yeast gene YBR054W): 2.1
The level of expressed mRNA in the presence of chemical substance/The level of expressed mRNA in the absence of chemical substance (yeast gene YBR067C): 1.1
The level of expressed mRNA in the presence of chemical substance/The level of expressed mRNA in the absence of chemical substance (yeast gene YBR072W): 2.1
The level of expressed mRNA in the presence of chemical substance/The level of expressed mRNA in the absence of chemical substance (yeast gene YBR126C): 0.6
The level of expressed mRNA in the presence of chemical substance/The level of expressed mRNA in the absence of chemical substance (yeast gene YBR169C): 0.9
The level of expressed mRNA in the presence of chemical substance/The level of expressed mRNA in the absence of chemical substance (yeast gene YCL035C): 1.4
The level of expressed mRNA in the presence of chemical substance/The level of expressed mRNA in the absence of chemical substance (yeast gene YCR021C): 0.8
The level of expressed mRNA in the presence of chemical substance/The level of expressed mRNA in the absence of chemical substance (yeast gene YCR060W): 1.2
The level of expressed mRNA in the presence of chemical substance/The level of expressed mRNA in the absence of chemical substance (yeast gene YCR083W): 1.5
The level of expressed mRNA in the presence of chemical substance/The level of expressed mRNA in the absence of chemical substance (yeast gene YDL022W): 0.8
The level of expressed mRNA in the presence of chemical substance/The level of expressed mRNA in the absence of chemical substance (yeast gene YDL025C): 1.1
The level of expressed mRNA in the presence of chemical substance/The level of expressed mRNA in the absence of chemical substance (yeast gene YDR033W): 1.0
The level of expressed mRNA in the presence of chemical substance/The level of expressed mRNA in the absence of chemical substance (yeast gene YDR077W): 0.8
The level of expressed mRNA in the presence of chemical substance/The level of expressed mRNA in the absence of chemical substance (yeast gene YDR098C): 1.2
The level of expressed mRNA in the presence of chemical substance/The level of expressed mRNA in the absence of chemical substance (yeast gene YDR155C): 1.4
The level of expressed mRNA in the presence of chemical substance/The level of expressed mRNA in the absence of chemical substance (yeast gene YDR258C): 1.9
The level of expressed mRNA in the presence of chemical substance/The level of expressed mRNA in the absence of chemical substance (yeast gene YDR293C): 0.6
The level of expressed mRNA in the presence of chemical substance/The level of expressed mRNA in the absence of chemical substance (yeast gene YDR436W): 0.9
The level of expressed mRNA in the presence of chemical substance/The level of expressed mRNA in the absence of chemical substance (yeast gene YDR513W): 1.6
The level of expressed mRNA in the presence of chemical substance/The level of expressed mRNA in the absence of chemical substance (yeast gene YDR519W): 1.4
The level of expressed mRNA in the presence of chemical substance/The level of expressed mRNA in the absence of chemical substance (yeast gene YEL030W): 0.7
The level of expressed mRNA in the presence of chemical substance/The level of expressed mRNA in the absence of chemical substance (yeast gene YEL039C): 1.1
The level of expressed mRNA in the presence of chemical substance/The level of expressed mRNA in the absence of chemical substance (yeast gene YER042W): 1.7
The level of expressed mRNA in the presence of chemical substance/The level of expressed mRNA in the absence of chemical substance (yeast gene YER057C): 1.0
The level of expressed mRNA in the presence of chemical substance/The level of expressed mRNA in the absence of chemical substance (yeast gene YER103W): 0.9
The level of expressed mRNA in the presence of chemical substance/The level of expressed mRNA in the absence of chemical substance (yeast gene YER125W): 0.7
The level of expressed mRNA in the presence of chemical substance/The level of expressed mRNA in the absence of chemical substance (yeast gene YFL014W): 3.4
The level of expressed mRNA in the presence of chemical substance/The level of expressed mRNA in the absence of chemical substance (yeast gene YFL016C): 0.7
The level of expressed mRNA in the presence of chemical substance/The level of expressed mRNA in the absence of chemical substance (yeast gene YFL020C): 0.7
The level of expressed mRNA in the presence of chemical substance/The level of expressed mRNA in the absence of chemical substance (yeast gene YFR052W): 1.5
The level of expressed mRNA in the presence of chemical substance/The level of expressed mRNA in the absence of chemical substance (yeast gene YGL073W): 0.8
The level of expressed mRNA in the presence of chemical substance/The level of expressed mRNA in the absence of chemical substance (yeast gene YGL115W): 1.0
The level of expressed mRNA in the presence of chemical substance/The level of expressed mRNA in the absence of chemical substance (yeast gene YGL181W): 1.2
The level of expressed mRNA in the presence of chemical substance/The level of expressed mRNA in the absence of chemical substance (yeast gene YGR088W): 0.8
The level of expressed mRNA in the presence of chemical substance/The level of expressed mRNA in the absence of chemical substance (yeast gene YHL028W): 0.4
The level of expressed mRNA in the presence of chemical substance/The level of expressed mRNA in the absence of chemical substance (yeast gene YHL046C): 1.0
The level of expressed mRNA in the presence of chemical substance/The level of expressed mRNA in the absence of chemical substance (yeast gene YHR030C): 1.5
The level of expressed mRNA in the presence of chemical substance/The level of expressed mRNA in the absence of chemical substance (yeast gene YHR057C): 1.0
The level of expressed mRNA in the presence of chemical substance/The level of expressed mRNA in the absence of chemical substance (yeast gene YHR104W): 1.1
The level of expressed mRNA in the presence of chemical substance/The level of expressed mRNA in the absence of chemical substance (yeast gene YIL011W): 0.7
The level of expressed mRNA in the presence of chemical substance/The level of expressed mRNA in the absence of chemical substance (yeast gene YIL033C): 0.7
The level of expressed mRNA in the presence of chemical substance/The level of expressed mRNA in the absence of chemical substance (yeast gene YIR037W): 1.3
The level of expressed mRNA in the presence of chemical substance/The level of expressed mRNA in the absence of chemical substance (yeast gene YIR038C): 1.3
The level of expressed mRNA in the presence of chemical substance/The level of expressed mRNA in the absence of chemical substance (yeast gene YJL128C): 0.9
The level of expressed mRNA in the presence of chemical substance/The level of expressed mRNA in the absence of chemical substance (yeast gene YJL158C): 0.7
The level of expressed mRNA in the presence of chemical substance/The level of expressed mRNA in the absence of chemical substance (yeast gene YJL159W): 0.8
The level of expressed mRNA in the presence of chemical substance/The level of expressed mRNA in the absence of chemical substance (yeast gene YJL165C): 0.7
The level of expressed mRNA in the presence of chemical substance/The level of expressed mRNA in the absence of chemical substance (yeast gene YJR045C): 0.8
The level of expressed mRNA in the presence of chemical substance/The level of expressed mRNA in the absence of chemical substance (yeast gene YJR090C): 0.8
The level of expressed mRNA in the presence of chemical substance/The level of expressed mRNA in the absence of chemical substance (yeast gene YKL161C): 1.9
The level of expressed mRNA in the presence of chemical substance/The level of expressed mRNA in the absence of chemical substance (yeast gene YKL163W): 0.8
The level of expressed mRNA in the presence of chemical substance/The level of expressed mRNA in the absence of chemical substance (yeast gene YKL164C): 0.8
The level of expressed mRNA in the presence of chemical substance/The level of expressed mRNA in the absence of chemical substance (yeast gene YKL210W): 0.9
The level of expressed mRNA in the presence of chemical substance/The level of expressed mRNA in the absence of chemical substance (yeast gene YKR053C): 0.9
The level of expressed mRNA in the presence of chemical substance/The level of expressed mRNA in the absence of chemical substance (yeast gene YLL024C): 0.7
The level of expressed mRNA in the presence of chemical substance/The level of expressed mRNA in the absence of chemical substance (yeast gene YLL026W): 1.4
The level of expressed mRNA in the presence of chemical substance/The level of expressed mRNA in the absence of chemical substance (yeast gene YLL039C): 1.1
The level of expressed mRNA in the presence of chemical substance/The level of expressed mRNA in the absence of chemical substance (yeast gene YLL060C): 5.8
The level of expressed mRNA in the presence of chemical substance/The level of expressed mRNA in the absence of chemical substance (yeast gene YLR006C): 0.9
The level of expressed mRNA in the presence of chemical substance/The level of expressed mRNA in the absence of chemical substance (yeast gene YLR109W): 0.9
The level of expressed mRNA in the presence of chemical substance/The level of expressed mRNA in the absence of chemical substance (yeast gene YLR259C): 0.8
The level of expressed mRNA in the presence of chemical substance/The level of expressed mRNA in the absence of chemical substance (yeast gene YML007W): 1.9
The level of expressed mRNA in the presence of chemical substance/The level of expressed mRNA in the absence of chemical substance (yeast gene YML070W): 1.3
The level of expressed mRNA in the presence of chemical substance/The level of expressed mRNA in the absence of chemical substance (yeast gene YMR021C): 1.3
The level of expressed mRNA in the presence of chemical substance/The level of expressed mRNA in the absence of chemical substance (yeast gene YMR173W): 2.3
The level of expressed mRNA in the presence of chemical substance/The level of expressed mRNA in the absence of chemical substance (yeast gene YMR186W): 0.8
The level of expressed mRNA in the presence of chemical substance/The level of expressed mRNA in the absence of chemical substance (yeast gene YNL064C): 1.4
The level of expressed mRNA in the presence of chemical substance/The level of expressed mRNA in the absence of chemical substance (yeast gene YNL160W): 1.2
The level of expressed mRNA in the presence of chemical substance/The level of expressed mRNA in the absence of chemical substance (yeast gene YNL241C): 0.9
The level of expressed mRNA in the presence of chemical substance/The level of expressed mRNA in the absence of chemical substance (yeast gene YNR076W): 1.0
The level of expressed mRNA in the presence of chemical substance/The level of expressed mRNA in the absence of chemical substance (yeast gene YOL064C): 1.0
The level of expressed mRNA in the presence of chemical substance/The level of expressed mRNA in the absence of chemical substance (yeast gene YOL161C): 0.8
The level of expressed mRNA in the presence of chemical substance/The level of expressed mRNA in the absence of chemical substance (yeast gene YOR008C): 0.8
The level of expressed mRNA in the presence of chemical substance/The level of expressed mRNA in the absence of chemical substance (yeast gene YOR009W): 0.7
The level of expressed mRNA in the presence of chemical substance/The level of expressed mRNA in the absence of chemical substance (yeast gene YOR010C): 0.5
The level of expressed mRNA in the presence of chemical substance/The level of expressed mRNA in the absence of chemical substance (yeast gene YOR027W): 0.9
The level of expressed mRNA in the presence of chemical substance/The level of expressed mRNA in the absence of chemical substance (yeast gene YOR208W): 1.0
The level of expressed mRNA in the presence of chemical substance/The level of expressed mRNA in the absence of chemical substance (yeast gene YPL059W): 1.4
The level of expressed mRNA in the presence of chemical substance/The level of expressed mRNA in the absence of chemical substance (yeast gene YPL106C): 1.2
The level of expressed mRNA in the presence of chemical substance/The level of expressed mRNA in the absence of chemical substance (yeast gene YPL140C): 1.1
The level of expressed mRNA in the presence of chemical substance/The level of expressed mRNA in the absence of chemical substance (yeast gene YPL194W): 1.3
The level of expressed mRNA in the presence of chemical substance/The level of expressed mRNA in the absence of chemical substance (yeast gene YPL223C): 1.2
The level of expressed mRNA in the presence of chemical substance/The level of expressed mRNA in the absence of chemical substance (yeast gene YPL240C): 1.2
The level of expressed mRNA in the presence of chemical substance/The level of expressed mRNA in the absence of chemical substance (yeast gene YPR005C): 1.2
The level of expressed mRNA in the presence of chemical substance/The level of expressed mRNA in the absence of chemical substance (yeast gene YPR026W): 1.0
